Reference: paper PMC6225212, “Synthesis and Pharmacological Evaluation of Novel Silodosin-Based Arylsulfonamide Derivatives as α1A/α1D-Adrenergic Receptor Antagonist with Potential Uroselective Profile” (Molecules : A Journal of Synthetic Chemistry and Natural …, 2018)

Columns and labels:
[1] = In vitro metabolic stability in rat-liver microsomes (RLM); assay type: in vitro ADME
Method: In vitro biotransformation assays of selected compounds 9 and 10 were performed using rat-liver microsomes (RLM), potassium-phosphate buffer, NADPH-regenerating system (NADP, glucose-6-phosphate, glucose-6-phosphate dehydrogenase), and levallorphan as internal standard, according to the previously published procedure. Compound I and the drug tamsulosin were used as reference standard. UPLC/MS analysis (Waters Corporation, Milford, MA, USA) was performed to determine the quantity of the starting material left in solution. The in vitro half-time (t1/2) for test compounds was determined from the slope of the linear regression of ln % parent compound remaining versus incubation time. The calculated t1/2 was incorporated into the following equation to obtain intrinsic clearance: (Clint) = (volume of incubation [µL]/protein in the incubation [mg]) × 0.693/t1/2.
Metabolic stability of tested compound was analyzed using incubation systems, composed of: tested compounds (10 μM), RLMs (microsomes from rat male liver, pooled; 0.2 mg/mL; Sigma Aldrich), NADPH-regenerating system (NADP+, glucose-6-phosphate and glucose-6-phosphate dehydrogenase in 100mM potassium buffer, pH 7.4; all from Sigma Aldrich), and potassium buffer, pH 7.4. […] Firstly, all samples contained incubation mixture (without NADPH-regenerating system) were preincubated in a thermoblock at 37 °C for 10 min. Then reaction was initiated by the addition of NADPH-regenerating system. In control samples NADPH-regenerating system was replaced with potassium buffer. Probes were incubated in thermoblock for 15 and 30 min at 37 °C. After addition of internal standard (levallorphan, 10 μM), the biotransformation process was stopped by addition of perchloric acid (69–72%, by volume). Next, samples were centrifuged (Centrifuge 5427 R, Eppendorf, Hamburg, Germany) and supernatants were analyzed using UPLC/MS (Waters Corporation). All experiments were run in duplicates. Half-life time was evaluated using a nonlinear regression model using Graph Pad Prism software (Graph Pad Software, La Jolla, San Diego, CA, USA) and intrinsic clearance was calculated from the equation Clint = (volume of incubation [μL]/protein in the incubation [mg]) ×∙0.693/t1/2 [33].

α1A-ARs = target: T1, α1A-ARs (Homo sapiens, UniProt P35348); parameters: method as in PMID 27658792; key to α1A Profile: ANT—antagonist; AGO—agonist; details: cited from earlier work
T1 sequence (P35348 1-466): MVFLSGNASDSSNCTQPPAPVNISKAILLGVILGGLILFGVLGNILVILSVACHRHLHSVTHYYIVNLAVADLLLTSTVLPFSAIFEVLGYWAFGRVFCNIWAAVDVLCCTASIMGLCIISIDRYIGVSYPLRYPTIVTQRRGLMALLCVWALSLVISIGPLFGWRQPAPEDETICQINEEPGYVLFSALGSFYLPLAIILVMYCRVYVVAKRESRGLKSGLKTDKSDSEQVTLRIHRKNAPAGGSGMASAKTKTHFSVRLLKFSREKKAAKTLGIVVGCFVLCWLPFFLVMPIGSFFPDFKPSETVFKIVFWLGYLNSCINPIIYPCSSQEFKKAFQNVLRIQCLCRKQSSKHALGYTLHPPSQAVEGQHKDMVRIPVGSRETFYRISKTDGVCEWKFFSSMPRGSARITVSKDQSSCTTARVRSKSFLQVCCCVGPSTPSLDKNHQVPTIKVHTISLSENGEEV

α1D-ARs = target: T2, α1D-ARs (Homo sapiens, UniProt P25100); parameters: method as in PMID 27658792; key to α1D Profile: ANT—antagonist; AGO—agonist; details: cited from earlier work
T2 sequence (P25100 1-572): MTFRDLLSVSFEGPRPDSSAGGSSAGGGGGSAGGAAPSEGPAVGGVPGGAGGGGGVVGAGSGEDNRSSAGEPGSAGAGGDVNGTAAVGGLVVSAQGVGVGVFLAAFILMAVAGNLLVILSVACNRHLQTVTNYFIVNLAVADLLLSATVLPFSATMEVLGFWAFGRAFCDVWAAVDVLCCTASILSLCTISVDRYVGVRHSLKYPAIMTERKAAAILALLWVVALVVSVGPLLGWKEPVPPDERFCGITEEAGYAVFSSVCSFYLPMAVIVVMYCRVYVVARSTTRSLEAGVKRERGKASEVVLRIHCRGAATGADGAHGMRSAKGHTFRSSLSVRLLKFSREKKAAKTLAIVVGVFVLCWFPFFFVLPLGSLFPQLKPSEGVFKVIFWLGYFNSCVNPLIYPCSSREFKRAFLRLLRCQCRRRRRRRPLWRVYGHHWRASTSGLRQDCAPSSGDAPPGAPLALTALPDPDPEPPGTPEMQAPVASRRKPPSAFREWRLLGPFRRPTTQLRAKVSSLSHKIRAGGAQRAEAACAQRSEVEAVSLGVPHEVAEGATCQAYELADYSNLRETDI

α2-ARs = target: α2-ARs; parameters: method as in PMID 27658792; details: [3H]-Clonidine, rat cerebral cortex; ± SEM; cited from earlier work
α1B-ARs = target: T3, α1B-ARs (Homo sapiens, UniProt P35368); parameters: method as in PMID 27658792; key to α1B Profile: ANT—antagonist; AGO—agonist; details: cited from earlier work
T3 sequence (P35368 1-520): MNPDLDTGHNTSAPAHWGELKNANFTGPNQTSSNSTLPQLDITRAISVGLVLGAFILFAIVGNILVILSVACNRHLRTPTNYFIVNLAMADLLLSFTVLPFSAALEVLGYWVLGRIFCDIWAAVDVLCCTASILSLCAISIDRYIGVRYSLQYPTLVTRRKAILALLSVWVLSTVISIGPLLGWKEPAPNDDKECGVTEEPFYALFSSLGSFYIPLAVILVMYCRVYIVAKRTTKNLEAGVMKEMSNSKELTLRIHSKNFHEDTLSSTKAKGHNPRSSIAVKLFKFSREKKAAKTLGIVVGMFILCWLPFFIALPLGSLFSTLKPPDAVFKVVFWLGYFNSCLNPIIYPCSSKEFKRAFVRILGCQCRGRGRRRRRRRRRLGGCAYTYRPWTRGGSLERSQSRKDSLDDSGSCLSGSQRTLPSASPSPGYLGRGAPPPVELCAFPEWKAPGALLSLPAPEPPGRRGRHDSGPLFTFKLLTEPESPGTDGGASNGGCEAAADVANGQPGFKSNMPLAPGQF

Major Metabolic Pathway ([1]; RLM): N-dealkylation | microsomal CLint at 10 μM ([1]; male, rat, rat liver microsomes, pH 7.4, RLM 0.2 mg/mL, compound 10 μM, 37 °C): 87 µL/min/mg | half-life at 10 μM ([1]; male, rat, rat liver microsomes, pH 7.4, RLM 0.2 mg/mL, compound 10 μM, 37 °C, read-out: t½): 40 min
Structure (SMILES): CC(C)Oc1ccccc1OCCN1CCC(CNS(=O)(=O)c2cccc(Cl)c2F)CC1 [Compound I]
IC50 (α1A-ARs; antagonist mode): 11.1 nM | α1A Profile (α1A-ARs; functional profile): ANT ^b | IC50 (α1D-ARs; antagonist mode): 15.1 nM | α1D Profile (α1D-ARs; functional profile): ANT | Ki (α2-ARs): 1210 ± 99 nM | IC50 (α1B-ARs; antagonist mode): 42.1 nM | α1B Profile (α1B-ARs; functional profile): ANT
